Source: US20250320253A1, “TRANSMEMBRANE PEPTIDIC ANTAGONISTS OF PLEXIN-A1 AND THEIR THERAPEUTIC USES” (UNIVERSITE DE STRASBOURG, priority 2021, published 2025)
“Also recorded” adds a separate entry of the source. Ends that are not written are not given here.

B1: GUNGNIR (peptide)
peptide: TLPAITGLVGGVGLLLEVIVEVAYEEEEE
B2: SURTR (peptide)
peptide: TLPVIGVIVLVGSAVLELIAEGVYEEEEE
B3: MIMMING (peptide)
peptide: TLPAIVSIGGGVVLLLEVIVEVAYEEEEE

Columns and labels:
[1] = MTP solubility in PBS and PBS/LDS; format: physicochemical
Description: The solubility of the MTPs was tested either in phosphate buffered saline (PBS) or in a mixture of PBS and lithium dodecyl sulfate (LDS).

[2] = target: T1, NRP1-PlexinA1 interaction (Mus musculus, UniProt P70206); assay: Proximity ligation assay of Neuropilin-1/Plexin-A1 receptor dimers in Oli-neu cells; format: cell-based; conditions: for Normalized interactions Nrp1-PlexinA1/cell: Oli-neu cells treated with peptides at 10^−7 M, vehicle 100; for reduction of the number of NRP1/PlexinA1 interactions: 10^−7 M
T1 construct: endogenous in cells; host or cells: Oli-neu cells
Description: After fixation with 1% PFA for 10 min, slices were permeabilized with PBS/0.1% Triton X-100. Primary antibodies (NRP1 from Evitria, 1:500; and Plexin-A1 from Abcam, ab23391, 1:200) were incubated overnight at 4° C. in PBS. The proximity ligation assay allowing to visualize receptor dimers (Neuropilin-1/Plexin-A1) was then performed according to the manufacturer's recommendations with the “detection orange” kit (Sigma). Quantification of the interactions (fluorescent dots at the cell surface) was performed using ImageJ software.

[3] = test system: oligodendrocyte cell line Oli-neu; assay: Cell migration assay (Transwell CIM-Plate, xCELLigence), rescue of Sema3A negative effect; format: cell-based; conditions: 20 ng/ml Sema3A
Description: Cells were pre-incubated 1 h with vehicle alone or MTP. The 1×10^5 cells were seeded in the upper chamber with 150 μl of medium. The bottom well contained 160 μl of medium supplemented with 2% fetal bovine serum for chemoattraction and 20 ng/ml Sema3A (Recombinant Mouse Semaphorin 3A Fc Chimera Protein Carrier Free ref: 5926-S3/CF; RnD Systems) for repulsion. Analysis was performed after 8 h of migration according to the manufacturer's instructions. Data are expressed as a percentage of positive control migration, i.e. the migration of Oli-neu with 2% serum and without Sema3A.

[4] = test system: cuprizone-induced demyelination; conditions: mouse, in vivo
Description: It was next assessed whether […] can induce remyelination of the CNS and motor function recovery following demyelination induced by cuprizone, a copper-chelating agent, in a mouse model. Oral intoxication with cuprizone induces oligodendrocyte apoptosis within a few days, which is closely followed by the activation of the innate immune cells in the brain, i.e., astrocytes and microglia, finally leading to demyelination of distinct white and grey matter brain areas. […] (10 μg/kg) for 6 consecutive days (n=10) • (e) 5 weeks cuprizone, followed by treatment with […] (100 μg/kg) for 6 consecutive days (n=10) • (f) 5 weeks cuprizone, followed by treatment with vehicle for 11 consecutive days (n=10) • (g) 5 weeks cuprizone, followed by treatment with […] (10 μg/kg) for 11 consecutive days (n=10) • (h) 5 weeks cuprizone, followed by treatment with […] (100 μg/kg) for 11 consecutive days (n=10) Acute demyelination was induced by intoxicating for five consecutive weeks 8-week-old (19-21 g) male mice a diet containing 0.25% cuprizone [bis(cyclohexanone)oxaldihydrazone; Sigma-Aldrich Inc., St Louis, MO, USA] mixed into a ground standard rodent chow. […]

[5] = target: Plexin-A1 (on Oli-neu cells) (UniProt P70206); assay: proximity ligation assay on Oli-neu cells, peptide at 10^-7 M for 1 h; NRP1/Plexin-A1 dimers counted
[6] = target: Plexin-A1 (on Oli-neu cells) (UniProt P70206); assay: proximity ligation assay on Oli-neu cells, dose response; inhibition of NRP1/Plexin-A1 interactions
[7] = Solubilization vehicle PBS 100%

Molecule | Measured concentration [1, 7] [µM] | Normalized interactions Nrp1-PlexinA1/cell [2] | Normalized interactions Nrp1-PlexinA1/cell (normalized to vehicle = 100) [5] | other results
TLPAIGVITLVGLGVLELVAEGVYEEEEE [HODR, reference compound] | 189 |  |  | 
TLPAITGLVGGVGLLLEVIVEVAYEEEEE [GUNGNIR] | 248 | 40.4 |  | reduction of the number of NRP1/PlexinA1 interactions ([2]; Oli-neu cells): −60%; IC50 ([3]; n=3): 1.2 nM; body weight [4]: no differences were observed; percentage loss of body weight relative to vehicle-treated groups [4]: significantly less pronounced
TLPAIVGIGGGGGELLLVIVEVLIYEEEEE [RATI] | 224 |  |  | 
TLPAIVGIGGGGGLLLEVIVEVLIAYEEEEE [DRAUPNIR] | 260 |  |  | 
TLPAIVGIGGGGGLLLLVIVAVLIAYKRK [MTP-PlexA1, reference compound] | 0 |  |  | Measured concentration ([1]; Solubilization vehicle PBS 100% LDS 72 mM): 360 µM
TLPAIVSIGGGVVLLLEVIVEVAYEEEEE [MIMMING] |  | 49.4 |  | reduction of the number of NRP1/PlexinA1 interactions ([2]; Oli-neu cells): −51%; IC50 ([2]; Oli-neu cells, dose response, read-out: IC50, number of NRP1/PlexinA1 interactions): 17 nM; rescue of Sema3A negative effect on migration ([3]; 8 h of migration): able to counteract; also recorded: rescue migration
TLPVIGVIVLVGSAVLELIAEGVYEEEEE [SURTR, reference compound] |  | 96.8 |  | 
B1 |  |  | 40.4 | IC50 [6]: 0.074 nM
B2 |  |  | 96.8 | 
B3 |  |  | 49.4 | 
